Assay [1] relates to MDA-MB-231 cells (WRN aberrant methylation). Kind of assay: Cytogenetic chromosomal breakage analysis. Format: cell-based, human. As for the experimental part: (§1) The percentage of apoptotic cells was determined by flow cytometry using Vybrant® Apoptosis Assay Kit #4-YO-PRO®-1/propidium iodide (Molecular Probes/Invitrogen). Briefly, cells were washed twice with ice cold PBS and resuspended in PBS containing YO-PRO®-1/propidium iodide. Apoptotic cells were identified by flow cytometry after 20 min of incubation. Cytogenetic assay was performed as previously described (Herranz et al., 2006) analyzing one-hundred metaphases for each experimental condition.

Assay [2] deals with MDA-MB-231 cells (WRN promoter hypermethylation). Kind of assay: Apoptosis by flow cytometry. Format: cell-based, human. Conditions: MDA-MB-231, WRN hypermethylated; increasing concentrations. The protocol:
as §1
(Flow cytometry measures light scatter and fluorescence of single cells or particles in a stream.)

Assay [3] deals with U937 cells (WRN promoter hypermethylation). Kind of assay: Apoptosis by flow cytometry. The format is cell-based, human. Conditions: U937, WRN hypermethylated; increasing concentrations. The protocol:
as §1

For assay [4], the system named is MCF-7 cells (unmethylated WRN promoter). Description: Apoptosis by flow cytometry. Conditions: MCF-7, WRN unmethylated. The format is cell-based, human. As for the experimental part: as §1
The subject of assay [5] is WRN-transfected MDA-MB-231 cells. Kind of assay: Cytogenetic chromosomal breakage analysis. Also on record: dose or concentration left out as unconfirmed. Format: cell-based, human. As for the experimental part: as §1
(§2) The WRN coding sequence corresponding to the cDNA from a BLCL lymphoblastoid-EBV immortalized cell line was amplified by PCR and directly cloned into the pGEM-T Easy Vector (Promega, Winsconsin USA). The WRN insert was subcloned into the pEGFP-N1 expression vector (Invitrogen) and confirmed by sequencing. For transfection experiments we used the pEGFP-N1 vector containing the WRN gene, or the pEGFP-N1 empty vector. Transfection of MDA-MB-231 and U937 cells was performed by electroporating […] in 0.8 ml PBS with 40 μg of the vector at 250 V and 975 μF. After electroporation, cells were washed with PBS and seeded with 10^6 cells/ml in fresh medium containing 20% FBS. Transfected cells were selected by the addition of G418 (600 μg/ml).

For assay [6], the system named is WRN-transfected U937 cells. Description: Apoptosis by flow cytometry. The format is cell-based, human. Conditions: U937 transfected with WRN. The protocol: as §1, §2
For assay [7], the system named is WRN-transfected MDA-MB-231 cells. Description: Apoptosis by flow cytometry. The format is cell-based, human. Conditions: MDA-MB-231 transfected with WRN. The protocol: as §1, §2
Assay [8] concerns lymphoblastoid cell line from a WS patient (WS-/-). Description: Apoptosis by flow cytometry. The format is cell-based, human. Conditions: WS patient lymphoblastoid cells, positive control. As for the experimental part: (§3) The eleven human cancer cell lines examined in this study were obtained from the American Type Culture Collection (ATCC) (Rockland, Md., USA) and the German Collection of Microorganisms and Cell Cultures (DSMZ, Braunschweig, Germany). The cell lines represented three different types of malignancies, colon (HCT-116, COLO-205), breast (MCF-7, MDA-MB-468, MDAMB-231) and leukaemia (HL-60, KG1a, U937, REH, Jurkat, K562). Cell lines were maintained in appropriate media and treated with 1 μM 5-aza-2′-deoxycytidine (Sigma) for 3 days to achieve demethylation, as previously described (Herman et al., 1998; Ropero et al., 2004). WS−/− cells (AG11395) were obtained from the Coriel Cell Repositories (Camden, N.J., USA). The collection of primary tumor samples analyzed has been described elsewhere (Esteller et al., 2001; Ropero et al., 2004).
as §1

For assay [9], the system named is HL60 cells (unmethylated WRN promoter). Description: Cytogenetic chromosomal breakage analysis. The format is cell-based, human. Conditions: metaphases. As for the experimental part: as §1
Assay [10] has as its system MCF-7 cells (unmethylated WRN promoter). Description: Cytogenetic chromosomal breakage analysis. The format is cell-based, human. Conditions: MCF-7, WRN unmethylated; metaphases. The protocol:
as §1

The test system of assay [11] is lymphoblastoid cells from a WS patient. Kind of assay: Cytogenetic chromosomal breakage analysis. The format is cell-based, human. Conditions: metaphases. As for the experimental part: as §3, §1
Assay [12] deals with primary colorectal tumors. Description: Overall survival of colorectal cancer patients treated with irinotecan, by WRN methylation status (Kaplan-Meier). Format: in vivo, human. Conditions: WRN methylated colon tumors (n=45). The protocol: Contingency tables were analyzed by Fisher's exact test. Overall survival curves were estimated by the Kaplan-Meier method and were compared with the use of the log-rank test. All statistical analyses were performed using the SPSS version 10.1 program (SPSS Inc, Chicago, Ill.).

Assay [13] concerns WRN-associated exonuclease activity in U937 cells. Description: Exonuclease activity assay in WRN-immunoprecipitated cell extracts. Format: cell-based, human. Conditions: 1 μM for 3 days. The protocol: as §3
The exonuclease enzymatic activity was measured as previously described (Brosh et al., 2001). […] The digestion products of these reactions were separated on 15% denaturing polyacrylamide gels, visualized using a PhosphorImager (Molecular Dynamics), and quantitated using ImageQuant software (Molecular Dynamics).

For assay [14], the system named is WRN RNA transcript and protein. Kind of assay: Reactivation of WRN expression in WRN-hypermethylated cancer cell lines (RT-PCR, western blot, immunofluorescence). The format is cell-based, human. Conditions: HCT-116, COLO-205, MDA-MB-231 and U937 cell lines; 1 μM for 3 days. The protocol: as §3
RNA was isolated using TRIzol (Life Technologies, Gaithersburg, Md., USA). 2 μg of RNA was reverse-transcribed using SuperScript II reverse transcriptase (Gibco/BRL) and amplified using specific primers for WRN (forward: 5′-GCATGTGTTCGGAAGAGTGTTT-3-(SEQ ID. NO: 6), reverse: 5′-TGACATGGAAGAAACGTGGAA-3 (SEQ ID. NO: 7)) and for GAPDH. […] Cell lysates for protein analysis were prepared and analyzed by western blotting using the WRN antibody ab200 (Rabbit Polyclonal, Abcam). […]
In general terms: A western blot detects proteins with antibodies after separation by electrophoresis.

Each structure is given as a SMILES string.

In the case of `CO[C@@]12[C@H](COC(N)=O)C3=C(C(=O)C(C)=C(N)C3=O)N1C[C@@H]1N[C@@H]12` [mitomycin C], the chromosomal breakage entry in assay [1] (MDA-MB-231 (empty vector), 50 mg/ml) is recorded as “massive breakage”; in assay [5] (MDA-MB-231 transfected with the WRN gene) it was “resistance to the genome damage”. Moreover, the induction of apoptosis entry is reported as “optimal inductors of apoptosis” in assay [2]; “optimal inductors of apoptosis” in assay [3]; “markedly resistant” in assay [4]; “resistant to the apoptosis” in assay [6]; “resistant to the apoptosis” in [7]; “same phenomena” in assay [8].
`CC[C@@]1(O)C(=O)OCc2c1cc1n(c2=O)Cc2cc3ccccc3nc2-1` [camptothecin]: the chromosomal breakage entry in [1] (MDA-MB-231, WRN methylated, metaphases) is reported as “extremely sensitive”; in assay [9], “minimal chromosomal breakage”; in assay [10], “minimal chromosomal breakage”; in assay [11], “extremely sensitive”; in assay [5] (MDA-MB-231 transfected with WRN, metaphases) it was “acquired a resistance”. Also, the induction of apoptosis result is given as “optimal inductors of apoptosis” in assay [2]; “optimal inductors of apoptosis” in assay [3]; “markedly resistant” in assay [4]; “resistant to the apoptosis” in [6]; “resistant to the apoptosis” in [7]; “same phenomena” in assay [8].
With `CCc1c2c(nc3ccc(OC(=O)N4CCC(N5CCCCC5)CC4)cc13)-c1cc3c(c(=O)n1C2)COC(=O)[C@]3(O)CC` [irinotecan], the “median time to the death of the patient” value in assay [12] was 39.4 months.
In the case of `Nc1ncn([C@H]2C[C@H](O)[C@@H](CO)O2)c(=O)n1` [5-aza-2′-deoxycytidine], the WRN-associated exonuclease activity result in assay [13] is given as “significant increase”. Besides, the “expression of WRN RNA transcript and protein” value in assay [14] was “restored the expression”.

Source of the values: patent publication US20090047214A1, “Novel methylation marker” (OncoMethylome Sciences S.A., priority 2006, published 2009).
